Assay results from the supplement of paper PMC10307832.

Legend:
Test in all cases: relative viability (nuclei count vs DMSO), 5 days (fraction); higher = more cells survive
LOU-NH91 = tested on: LOU-NH91
How it was run: (§1)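 Lung cancer cell lines were pin-tool dosed in 1536-well plates on the day after seeding, with either a lone drug or a fixed anchor-drug dose plus five library-drug doses (not always all listed) in √10 steps. Nuclei were counted on 4× images after 5 days. Relative viability is the ratio of treated-well to vehicle-well nuclei counts, with each value a median of duplicate plates.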

HOP-62 = tested on: HOP-62
How it was run: as §1

BEN = tested on: BEN
How it was run: as §1

NCI-H647 = tested on: NCI-H647
How it was run: as §1

NCI-H1993 = tested on: NCI-H1993
How it was run: as §1

NCI-H1437 = tested on: NCI-H1437
How it was run: as §1

NCI-H441 = tested on: NCI-H441
How it was run: as §1

NCI-H2170 = tested on: NCI-H2170
How it was run: as §1

PC-14 = tested on: PC-14
How it was run: as §1

NCI-H1666 = tested on: NCI-H1666
How it was run: as §1

NCI-H1355 = tested on: NCI-H1355
How it was run: as §1

ChaGo-K-1 = tested on: ChaGo-K-1
How it was run: as §1

NCI-H2126 = tested on: NCI-H2126
How it was run: as §1

EKVX = tested on: EKVX
How it was run: as §1

LK-2 = tested on: LK-2
How it was run: as §1

LXF-289 = tested on: LXF-289
How it was run: as §1

NCI-H727 = tested on: NCI-H727
How it was run: as §1

RERF-LC-KJ = tested on: RERF-LC-KJ
How it was run: as §1

SK-MES-1 = tested on: SK-MES-1
How it was run: as §1

NCI-H1944 = tested on: NCI-H1944
How it was run: as §1

HCC-827 = tested on: HCC-827
How it was run: as §1

CN1CCN(CCOc2cc(OC3CCOCC3)c3c(Nc4c(Cl)ccc5c4OCO5)ncnc3c2)CC1 [Saracatinib] + CC1(C)CCC(c2ccc(Cl)cc2)=C(CN2CCN(c3ccc(C(=O)NS(=O)(=O)c4ccc(N[C@H](CCN5CCOCC5)CSc5ccccc5)c(S(=O)(=O)C(F)(F)F)c4)cc3)CC2)C1 [Navitoclax] (partner 0.5 µM)
relative viability (LOU-NH91; first compound 0.02 µM): 0.678 | relative viability (LOU-NH91; first compound 0.2 µM): 0.418 | relative viability (LOU-NH91; first compound 0.6325 µM): 0.405 | relative viability (LOU-NH91; first compound 2 µM): 0.361 | relative viability (HOP-62; first compound 0.02 µM): 1.01 | relative viability (HOP-62; first compound 0.2 µM): 0.804 | relative viability (HOP-62; first compound 0.6325 µM): 1.25 | relative viability (HOP-62; first compound 2 µM): 1.1 | relative viability (BEN; first compound 0.02 µM): 0.0867 | relative viability (BEN; first compound 0.2 µM): 0.0774 | relative viability (BEN; first compound 0.6325 µM): 0.0714 | relative viability (BEN; first compound 2 µM): 0.0584 | relative viability (NCI-H647; first compound 0.02 µM): 1.15 | relative viability (NCI-H647; first compound 0.2 µM): 0.959 | relative viability (NCI-H647; first compound 0.6325 µM): 1.18 | relative viability (NCI-H647; first compound 2 µM): 0.764 | relative viability (NCI-H1993; first compound 0.02 µM): 0.848 | relative viability (NCI-H1993; first compound 0.2 µM): 0.78 | relative viability (NCI-H1993; first compound 2 µM): 0.769 | relative viability (NCI-H1437; first compound 0.02 µM): 1.11 | relative viability (NCI-H1437; first compound 0.2 µM): 1.12 | relative viability (NCI-H1437; first compound 0.6325 µM): 1.11 | relative viability (NCI-H1437; first compound 2 µM): 1.03 | relative viability (NCI-H441; first compound 0.02 µM): 0.566 | relative viability (NCI-H441; first compound 0.2 µM): 0.681 | relative viability (NCI-H441; first compound 0.6325 µM): 0.832 | relative viability (NCI-H441; first compound 2 µM): 0.624 | relative viability (NCI-H2170; first compound 0.02 µM): 0.57 | relative viability (NCI-H2170; first compound 0.2 µM): 0.564 | relative viability (NCI-H2170; first compound 0.6325 µM): 0.609 | relative viability (NCI-H2170; first compound 2 µM): 0.39 | relative viability (PC-14; first compound 0.02 µM): 1.01 | relative viability (PC-14; first compound 0.2 µM): 1.01 | relative viability (PC-14; first compound 0.6325 µM): 0.417 | relative viability (PC-14; first compound 2 µM): 0.198 | relative viability (NCI-H1666; first compound 0.02 µM): 1.04 | relative viability (NCI-H1666; first compound 0.2 µM): 0.928 | relative viability (NCI-H1666; first compound 0.6325 µM): 1.06 | relative viability (NCI-H1666; first compound 2 µM): 0.667 | relative viability (NCI-H1355; first compound 0.02 µM): 0.988 | relative viability (NCI-H1355; first compound 0.2 µM): 0.895 | relative viability (NCI-H1355; first compound 0.6325 µM): 0.928 | relative viability (NCI-H1355; first compound 2 µM): 0.901 | relative viability (ChaGo-K-1; first compound 0.02 µM): 1.15 | relative viability (ChaGo-K-1; first compound 0.2 µM): 0.68 | relative viability (ChaGo-K-1; first compound 0.6325 µM): 1.21 | relative viability (ChaGo-K-1; first compound 2 µM): 0.542 | relative viability (NCI-H2126; first compound 0.02 µM): 0.876 | relative viability (NCI-H2126; first compound 0.2 µM): 0.747 | relative viability (NCI-H2126; first compound 0.6325 µM): 0.887 | relative viability (NCI-H2126; first compound 2 µM): 0.684 | relative viability (EKVX; first compound 0.02 µM): 0.902 | relative viability (EKVX; first compound 0.2 µM): 0.88 | relative viability (EKVX; first compound 0.6325 µM): 0.903 | relative viability (EKVX; first compound 2 µM): 0.357 | relative viability (LK-2; first compound 0.02 µM): 0.795 | relative viability (LK-2; first compound 0.2 µM): 0.781 | relative viability (LK-2; first compound 0.6325 µM): 0.71 | relative viability (LK-2; first compound 2 µM): 0.489 | relative viability (LXF-289; first compound 0.02 µM): 0.979 | relative viability (LXF-289; first compound 0.2 µM): 0.846 | relative viability (LXF-289; first compound 0.6325 µM): 0.993 | relative viability (LXF-289; first compound 2 µM): 0.964 | relative viability (NCI-H727; first compound 0.02 µM): 0.499 | relative viability (NCI-H727; first compound 0.2 µM): 0.285 | relative viability (NCI-H727; first compound 0.6325 µM): 0.48 | relative viability (NCI-H727; first compound 2 µM): 0.225 | relative viability (RERF-LC-KJ; first compound 0.02 µM): 0.817 | relative viability (RERF-LC-KJ; first compound 0.2 µM): 1.17 | relative viability (RERF-LC-KJ; first compound 0.6325 µM): 0.959 | relative viability (RERF-LC-KJ; first compound 2 µM): 0.934 | relative viability (SK-MES-1; first compound 0.02 µM): 1.24 | relative viability (SK-MES-1; first compound 0.2 µM): 1.16 | relative viability (SK-MES-1; first compound 0.6325 µM): 1.21 | relative viability (SK-MES-1; first compound 2 µM): 0.727 | relative viability (NCI-H1944; first compound 0.02 µM): 1.14 | relative viability (NCI-H1944; first compound 0.6325 µM): 0.974 | relative viability (NCI-H1944; first compound 2 µM): 0.718 | relative viability (HCC-827; first compound 0.02 µM): 0.979 | relative viability (HCC-827; first compound 0.2 µM): 0.808 | relative viability (HCC-827; first compound 0.6325 µM): 0.368 | relative viability (HCC-827; first compound 2 µM): 0.137
